The values below come from patent US12516056B2, “Compounds for inhibition of janus kinase 1” (MANKIND PHARMA LTD., priority 2019, dated 2026).

Molecules are shown by their SMILES.

The target of experiment [1] is T1, Recombinant JAK1 (Homo sapiens, UniProt P23458).
T1 construct: purchased Carna Biosciences
As to the kind of experiment: JAK biochemical assay (LANCE Ultra TR-FRET), JAK1. The note with it: recombinant JAK1, TR-FRET; read-out: Biochemical Assay (μM) JAK1. On the procedure:
(§1) Recombinant JAK1, JAK2, JAK3 and TYK2 (Carna Biosciences) were used to develop biochemical assays in 50 mM HEPES pH 7.5, 1 mM EGTA, 10 mM MgCl2, 2 mM DTT and 0.01% Tween-20. […] The intensity of the light emission is proportional to the level of ULight substrate phosphorylation. Compounds which interfere with JAK enzyme activity show a lesser substrate phosphorylation and values are projected in terms of % inhibition in comparison to vehicle control.
For orientation: Time-resolved FRET reads energy transfer from a long-lived donor to a nearby acceptor.

The target in experiment [2] is T2, Recombinant JAK2 (Homo sapiens, UniProt O60674).
T2 construct: purchased Carna Biosciences
T2 sequence (O60674 whole entry): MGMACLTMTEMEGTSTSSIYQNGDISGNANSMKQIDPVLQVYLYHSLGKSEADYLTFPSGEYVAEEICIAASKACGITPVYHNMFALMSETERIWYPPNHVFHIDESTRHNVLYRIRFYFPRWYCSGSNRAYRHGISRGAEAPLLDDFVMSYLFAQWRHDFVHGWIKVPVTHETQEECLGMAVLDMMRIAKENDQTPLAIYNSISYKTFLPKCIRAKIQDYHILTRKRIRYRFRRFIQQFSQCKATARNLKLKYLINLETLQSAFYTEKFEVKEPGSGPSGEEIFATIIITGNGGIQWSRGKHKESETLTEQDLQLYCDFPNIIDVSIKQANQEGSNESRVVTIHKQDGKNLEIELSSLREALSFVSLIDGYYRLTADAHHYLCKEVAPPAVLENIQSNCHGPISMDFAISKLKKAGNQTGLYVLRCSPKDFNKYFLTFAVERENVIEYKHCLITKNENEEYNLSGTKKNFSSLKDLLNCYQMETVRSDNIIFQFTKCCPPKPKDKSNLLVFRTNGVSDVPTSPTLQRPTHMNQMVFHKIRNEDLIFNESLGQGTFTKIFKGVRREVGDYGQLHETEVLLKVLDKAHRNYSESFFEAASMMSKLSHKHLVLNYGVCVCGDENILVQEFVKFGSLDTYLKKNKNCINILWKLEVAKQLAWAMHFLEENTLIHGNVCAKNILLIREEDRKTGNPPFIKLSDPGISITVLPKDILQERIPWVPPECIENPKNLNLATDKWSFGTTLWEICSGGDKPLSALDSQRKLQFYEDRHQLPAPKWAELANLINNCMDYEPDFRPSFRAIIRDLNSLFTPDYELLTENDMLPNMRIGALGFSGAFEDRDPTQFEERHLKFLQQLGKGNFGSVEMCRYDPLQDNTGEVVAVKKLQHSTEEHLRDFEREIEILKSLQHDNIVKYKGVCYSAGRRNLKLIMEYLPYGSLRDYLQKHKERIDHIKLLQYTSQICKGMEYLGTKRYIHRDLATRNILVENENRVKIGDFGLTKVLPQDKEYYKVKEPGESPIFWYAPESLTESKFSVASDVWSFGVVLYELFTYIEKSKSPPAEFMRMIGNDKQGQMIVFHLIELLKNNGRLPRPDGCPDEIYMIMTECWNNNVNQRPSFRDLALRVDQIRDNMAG
Briefly: JAK biochemical assay (LANCE Ultra TR-FRET), JAK2. The note with it: recombinant JAK2, TR-FRET; read-out: Biochemical Assay (μM) JAK2. How it is done:
as §1

Experiment [3] addresses T3, Recombinant JAK3 (Homo sapiens, UniProt P52333).
T3 construct: purchased Carna Biosciences
T3 sequence (P52333 1-1124): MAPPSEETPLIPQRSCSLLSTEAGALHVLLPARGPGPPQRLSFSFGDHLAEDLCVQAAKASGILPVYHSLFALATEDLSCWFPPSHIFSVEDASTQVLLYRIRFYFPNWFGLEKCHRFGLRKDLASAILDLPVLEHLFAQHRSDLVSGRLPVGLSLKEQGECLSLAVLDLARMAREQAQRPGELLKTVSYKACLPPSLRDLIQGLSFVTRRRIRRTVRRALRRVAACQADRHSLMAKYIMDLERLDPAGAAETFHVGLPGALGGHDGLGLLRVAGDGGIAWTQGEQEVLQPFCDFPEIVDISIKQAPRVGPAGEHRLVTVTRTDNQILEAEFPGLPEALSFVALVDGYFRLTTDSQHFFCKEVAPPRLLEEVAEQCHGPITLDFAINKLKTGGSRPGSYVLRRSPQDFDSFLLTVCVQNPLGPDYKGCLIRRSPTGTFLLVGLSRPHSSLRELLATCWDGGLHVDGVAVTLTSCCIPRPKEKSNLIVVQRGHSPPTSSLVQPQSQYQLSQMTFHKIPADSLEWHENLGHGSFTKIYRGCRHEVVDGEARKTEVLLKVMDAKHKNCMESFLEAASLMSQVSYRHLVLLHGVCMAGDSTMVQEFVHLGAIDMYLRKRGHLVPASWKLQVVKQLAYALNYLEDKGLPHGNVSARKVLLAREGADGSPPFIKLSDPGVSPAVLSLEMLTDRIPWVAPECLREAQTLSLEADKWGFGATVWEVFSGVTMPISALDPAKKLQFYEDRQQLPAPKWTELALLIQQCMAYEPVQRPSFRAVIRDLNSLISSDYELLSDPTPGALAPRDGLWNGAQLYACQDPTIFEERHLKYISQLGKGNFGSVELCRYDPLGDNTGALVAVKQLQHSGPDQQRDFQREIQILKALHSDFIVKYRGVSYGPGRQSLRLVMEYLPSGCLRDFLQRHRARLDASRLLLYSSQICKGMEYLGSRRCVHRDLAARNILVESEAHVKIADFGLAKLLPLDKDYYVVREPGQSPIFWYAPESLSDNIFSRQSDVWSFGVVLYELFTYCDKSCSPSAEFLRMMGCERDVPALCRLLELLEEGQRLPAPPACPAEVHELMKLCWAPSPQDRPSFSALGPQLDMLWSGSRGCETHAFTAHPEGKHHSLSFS
As to the kind of experiment: JAK biochemical assay (LANCE Ultra TR-FRET), JAK3. To be noted: recombinant JAK3, TR-FRET; read-out: Biochemical Assay (μM) JAK3. How it is done: as §1

Experiment [4] deals with T4, Recombinant TYK2 (Homo sapiens, UniProt P29597).
T4 construct: purchased Carna Biosciences
T4 sequence (P29597 whole entry): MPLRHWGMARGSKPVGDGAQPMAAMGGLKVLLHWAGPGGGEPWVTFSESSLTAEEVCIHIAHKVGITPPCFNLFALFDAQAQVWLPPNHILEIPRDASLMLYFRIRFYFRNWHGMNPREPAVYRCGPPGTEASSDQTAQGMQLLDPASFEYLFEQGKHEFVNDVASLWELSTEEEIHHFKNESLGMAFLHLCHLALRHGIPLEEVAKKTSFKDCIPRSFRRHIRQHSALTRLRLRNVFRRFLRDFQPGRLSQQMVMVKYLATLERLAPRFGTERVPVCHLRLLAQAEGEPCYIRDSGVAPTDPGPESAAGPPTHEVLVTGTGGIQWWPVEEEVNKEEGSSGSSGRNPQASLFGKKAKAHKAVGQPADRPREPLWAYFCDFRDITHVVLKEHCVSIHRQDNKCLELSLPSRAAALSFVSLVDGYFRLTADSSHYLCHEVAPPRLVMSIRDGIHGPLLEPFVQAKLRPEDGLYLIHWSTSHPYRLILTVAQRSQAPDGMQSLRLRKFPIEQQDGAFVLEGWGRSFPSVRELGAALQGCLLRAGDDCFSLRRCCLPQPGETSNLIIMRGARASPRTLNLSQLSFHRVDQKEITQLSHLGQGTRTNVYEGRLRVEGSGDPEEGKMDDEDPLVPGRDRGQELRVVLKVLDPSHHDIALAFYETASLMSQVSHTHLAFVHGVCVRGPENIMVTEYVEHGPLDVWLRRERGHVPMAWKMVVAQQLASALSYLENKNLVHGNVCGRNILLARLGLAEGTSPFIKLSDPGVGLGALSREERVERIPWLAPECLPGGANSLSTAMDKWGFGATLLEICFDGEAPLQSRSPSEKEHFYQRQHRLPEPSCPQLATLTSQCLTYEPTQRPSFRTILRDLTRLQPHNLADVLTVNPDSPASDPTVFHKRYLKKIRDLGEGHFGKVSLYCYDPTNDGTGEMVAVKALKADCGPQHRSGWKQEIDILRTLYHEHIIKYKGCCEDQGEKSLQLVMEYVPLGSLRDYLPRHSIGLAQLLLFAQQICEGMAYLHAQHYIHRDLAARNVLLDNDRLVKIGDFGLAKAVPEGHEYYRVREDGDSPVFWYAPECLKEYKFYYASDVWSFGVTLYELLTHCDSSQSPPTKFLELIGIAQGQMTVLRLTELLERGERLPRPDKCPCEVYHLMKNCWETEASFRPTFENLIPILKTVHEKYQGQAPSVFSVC
Briefly: JAK biochemical assay (LANCE Ultra TR-FRET), TYK2. To be noted: recombinant TYK2, TR-FRET; read-out: Biochemical Assay (μM) TYK2. On the procedure: as §1

T1 sequence (P23458 whole entry): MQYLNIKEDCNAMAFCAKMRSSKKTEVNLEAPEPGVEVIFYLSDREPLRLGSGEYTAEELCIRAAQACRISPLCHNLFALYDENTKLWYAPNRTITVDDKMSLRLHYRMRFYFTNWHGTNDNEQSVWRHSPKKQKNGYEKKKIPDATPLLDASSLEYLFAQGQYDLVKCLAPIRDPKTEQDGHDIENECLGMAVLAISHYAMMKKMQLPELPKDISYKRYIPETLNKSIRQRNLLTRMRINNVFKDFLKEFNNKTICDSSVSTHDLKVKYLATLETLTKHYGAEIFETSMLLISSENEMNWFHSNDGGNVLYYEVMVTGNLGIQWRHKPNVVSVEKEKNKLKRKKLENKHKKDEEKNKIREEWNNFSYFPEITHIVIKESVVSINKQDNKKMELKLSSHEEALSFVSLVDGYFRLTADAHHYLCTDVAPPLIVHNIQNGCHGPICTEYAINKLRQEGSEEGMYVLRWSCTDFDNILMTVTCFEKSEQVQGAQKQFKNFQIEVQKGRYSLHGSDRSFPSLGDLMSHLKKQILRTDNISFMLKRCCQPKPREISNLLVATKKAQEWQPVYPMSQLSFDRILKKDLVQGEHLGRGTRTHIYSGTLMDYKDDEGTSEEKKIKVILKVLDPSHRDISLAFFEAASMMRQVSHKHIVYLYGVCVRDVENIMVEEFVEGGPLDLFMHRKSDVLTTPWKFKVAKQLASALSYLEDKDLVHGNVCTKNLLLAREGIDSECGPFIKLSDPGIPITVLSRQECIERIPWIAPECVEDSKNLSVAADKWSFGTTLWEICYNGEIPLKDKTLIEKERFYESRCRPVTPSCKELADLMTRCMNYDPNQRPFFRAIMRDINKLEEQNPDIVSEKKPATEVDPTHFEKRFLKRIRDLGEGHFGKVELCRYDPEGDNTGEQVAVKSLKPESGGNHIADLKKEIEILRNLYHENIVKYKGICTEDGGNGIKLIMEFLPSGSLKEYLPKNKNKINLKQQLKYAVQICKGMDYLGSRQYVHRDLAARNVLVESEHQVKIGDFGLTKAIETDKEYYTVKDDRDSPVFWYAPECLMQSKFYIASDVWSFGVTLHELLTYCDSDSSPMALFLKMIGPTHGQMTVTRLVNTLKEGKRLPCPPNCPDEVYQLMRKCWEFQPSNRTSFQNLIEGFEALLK

For `COC(CCS(C)(=O)=O)c1ccc(-n2cc(-c3ccnc4[nH]cnc34)cn2)nc1` (stereo not drawn) [Example 1161, 7-(1-(5-(1-methoxy-3-(methylsulfonyl)propyl)pyridin-2-yl)-1H-pyrazol-4-yl)-3H-imidazo[4,5-b]pyridine], the IC50 in experiment [1] is over 1 µM; in experiment [2] it was over 1 µM; in experiment [3], over 0.5 µM; in experiment [4], over 1 µM.
In the case of `N#CCNC(=O)c1ccc(-n2cc(-c3ccnc4[nH]cnc34)cn2)nc1` [Example 1088, 6-(4-(3H-imidazo[4,5-b]pyridin-7-yl)-1H-pyrazol-1-yl)-N-(cyanomethyl)pyridine-3-carboxamide], the IC50 in experiment [1], in experiment [2], in experiment [3] and in experiment [4] was over 1 µM throughout.
For `O=C(Cc1ccc(-n2cc(-c3ccnc4[nH]cnc34)cn2)nc1)NCC(F)(F)F` [Example 1092, 2-(6-(4-(3H-imidazo[4,5-b]pyridin-7-yl)-1H-pyrazol-1-yl)pyridin-3-yl)-N-(2,2,2-trifluoroethyl)acetamide], the IC50 in experiment [1], in experiment [2], in experiment [3] and in experiment [4] was over 1 µM each time.
As to `CCOc1nc2c(-c3cnn(C(=O)NCC(F)(F)F)c3)ccnc2[nH]1` [Example 1095, 4-(2-ethoxy-3H-imidazo[4,5-b]pyridin-7-yl)-N-(2,2,2-trifluoroethyl)-1H-pyrazole-1-carboxamide], the IC50 is under 1 µM in experiment [1], under 1 µM in experiment [2], under 1 µM in experiment [3] and over 10 µM in experiment [4].
Turning to `CS(=O)(=O)CCC(c1ccnc(-n2cc(-c3ccnc4[nH]cnc34)cn2)c1)C(F)(F)F` (stereo not drawn) [Example 1176, 7-(1-(4-(1,1,1-trifluoro-4-(methylsulfonyl)butan-2-yl)pyridin-2-yl)-1H-pyrazol-4-yl)-3H-imidazo[4,5-b]pyridine], the IC50 in experiment [1], in experiment [2], in experiment [3] and in experiment [4] was over 1 µM each time.
Regarding `O=C(N1CCN(c2ccnc3[nH]c(=O)[nH]c23)CC1)N1CCS(=O)(=O)CC1` [Example 1018, 7-(4-(1,1-dioxidothiomorpholine-4-carbonyl)piperazin-1-yl)-1,3-dihydro-2H-imidazo[4,5-b]pyridin-2-one], the IC50 in experiment [1], in experiment [2], in experiment [3] and in experiment [4] was over 10 µM in each case.
As for `OC(c1ccc(-n2cc(-c3ccnc4[nH]cnc34)cn2)nc1)C1CC1` (stereo not drawn) [Example 1159, (6-(4-(3H-imidazo[4,5-b]pyridin-7-yl)-1H-pyrazol-1-yl)pyridin-3-yl)(cyclopropyl)methanol], the IC50 in experiment [1] was under 0.1 µM; in experiment [2] it was over 0.1 µM; in experiment [3], under 0.1 µM; in experiment [4], over 1 µM.
Take `N#CC(c1ccc(-n2cc(-c3ccnc4[nH]cnc34)cn2)nc1)C1CC1` (stereo not drawn) [Example 1110, 2-(6-(4-(3H-imidazo[4,5-b]pyridin-7-yl)-1H-pyrazol-1-yl)pyridin-3-yl)-2-cyclopropylacetonitrile]: the IC50 in experiment [1] was over 0.1 µM; in experiment [2], over 0.5 µM; in experiment [3] it was over 0.1 µM; in experiment [4], over 1 µM.
Regarding `O=C1Cc2c(-c3cnn(C(=O)NCC(F)(F)F)c3)ccnc2N1` [Example 1045, N-(2,2,2-trifluoroethyl)-4-(2,3-dihydro-2-oxo-1H-pyrrolo[2,3-b]pyridin-4-yl)-1H-pyrazole-1-carboxamide], the IC50 in experiment [1], in experiment [2], in experiment [3] and in experiment [4] was over 1 µM in each case.
With `N#CC(NC(=O)n1cc(-c2ccnc3[nH]c(=O)[nH]c23)cn1)c1ccccc1` (stereo not drawn) [Example 1063, N-(cyano(phenyl)methyl)-4-(2,3-dihydro-2-oxo-1H-imidazo[4,5-b]pyridin-7-yl)-1H-pyrazole-1-carboxamide], the IC50 in experiment [1] was over 0.5 µM; in experiment [2], under 0.5 µM; in experiment [3], over 0.5 µM; in experiment [4] it was under 0.5 µM.
Turning to `CN1CCC(C(O)c2ccc(-n3cc(-c4ccnc5[nH]cnc45)cn3)nc2)CC1` (stereo not drawn) [Example 1165, (6-(4-(3H-imidazo[4,5-b]pyridin-7-yl)-1H-pyrazol-1-yl)pyridin-3-yl)(1-methylpiperidin-4-yl)methanol], the IC50 in experiment [1], in experiment [2], in experiment [3] and in experiment [4] was over 1 µM throughout.
As for `O=C(CCC(F)(F)F)n1cc(-c2ccnc3[nH]c(=O)[nH]c23)cn1` [Example 1031, 7-(1-(4,4,4-trifluorobutanoyl)-1H-pyrazol-4-yl)-1H-imidazo[4,5-b]pyridin-2(3H)-one], the IC50 in experiment [1], in experiment [2], in experiment [3] and in experiment [4] was over 1 µM each time.
As for `O=S(=O)(CC1CC1)CC(c1ccc(-n2cc(-c3ccnc4[nH]cnc34)cn2)nc1)C(F)(F)F` (stereo not drawn) [Example 1205, 7-(1-(5-(3-(cyclopropylmethylsulfonyl)-1,1,1-trifluoropropan-2-yl)pyridin-2-yl)-1H-pyrazol-4-yl)-3H-imidazo[4,5-b]pyridine], the IC50 in experiment [1] was under 0.1 µM; in experiment [2], over 0.1 µM; in experiment [3], over 0.1 µM; in experiment [4], over 1 µM.
For `CC(C)N(CCC(c1ccc(-n2cc(-c3ccnc4[nH]cnc34)cn2)nc1)C(F)(F)F)C(C)C` (stereo not drawn) [Example 1211, 3-(6-(4-(3H-imidazo[4,5-b]pyridin-7-yl)-1H-pyrazol-1-yl)pyridin-3-yl)-4,4,4-trifluoro-N,N-diisopropylbutan-1-amine], the IC50 is under 0.1 µM in experiment [1], over 0.1 µM in experiment [2], over 0.1 µM in experiment [3] and over 1 µM in experiment [4].
On to `O=C(NCC(F)(F)F)Nc1ncc(-c2ccnc3[nH]c(=O)[nH]c23)cn1` [Example 1004, 1-(2,2,2-trifluoroethyl)-3-(5-(2,3-dihydro-2-oxo-1H-imidazo[4,5-b]pyridin-7-yl)pyrimidin-2-yl)urea], for which the IC50 in experiment [1], in experiment [2], in experiment [3] and in experiment [4] was over 10 µM throughout.
Take `O=C(NC1CCS(=O)(=O)CC1)N1CCN(c2ccnc3[nH]c(=O)[nH]c23)CC1` [Example 1020, N-(1,1-dioxidotetrahydro-2H-thiopyran-4-yl)-4-(2-oxo-2,3-dihydro-1H-imidazo[4,5-b]pyridin-7-yl)piperazine-1-carboxamide]: the IC50 in experiment [1], in experiment [2], in experiment [3] and in experiment [4] was over 10 µM each time.
For `CS(=O)(=O)CCC(c1ccc(-n2cc(-c3ccnc4[nH]c(=O)[nH]c34)cn2)nc1)C(F)(F)F` (stereo not drawn) [Example 1189, 7-(1-(5-(1,1,1-trifluoro-4-(methylsulfonyl)butan-2-yl)pyridin-2-yl)-1H-pyrazol-4-yl)-1H-imidazo[4,5-b]pyridin-2(3H)-one], the IC50 in experiment [1] is over 0.5 µM; in experiment [2] it was over 1 µM; in experiment [3], over 1 µM; in experiment [4], over 1 µM.
Turning to `COCCC(c1ccc(-n2cc(-c3ccnc4[nH]cnc34)cn2)nc1)C(F)(F)F` (stereo not drawn) [Example 1155, 7-(1-(5-(1,1,1-trifluoro-4-methoxybutan-2-yl)pyridin-2-yl)-1H-pyrazol-4-yl)-3H-imidazo[4,5-b]pyridine], the IC50 in experiment [1] was over 0.1 µM; in experiment [2], over 0.5 µM; in experiment [3], over 0.1 µM; in experiment [4], over 1 µM.
